Laboratory results taken from patent US20160220569A1, “CDK4/6 Inhibitor Dosage Formulations For The Protection Of Hematopoietic Stem And Progenitor Cells During Chemotherapy” (G1 Therapeutics, Inc., priority 2015, published 2016).
“And” between values parts separate entries of the source, which are not always exact repeats. Identical values can stand only once. Like-named read-outs stand apart in the source and are kept apart here.

Assay: Single escalating dose IV infusion pharmacokinetics in healthy volunteers (noncompartmental)
Type: in vivo, human
Conditions: for HL_Lambda_z / highest (peak) concentration: individual subjects; for HL_Lambda_z: WinNonlin noncompartmental analysis, in h
Method: Forty-five subjects have enrolled in the study.
Analysis of plasma concentration versus time data for calculation of standard pharmacokinetic (PK) parameters following intravenous infusion administration was conducted using Phoenix WinNonlin version 6.3 using a nominal infusion duration and scheduled blood sampling times. Random subject numbers were assigned by the bioanalytical laboratory to retain the blind.
(§1) Analysis of plasma concentration versus time data for calculation of standard pharmacokinetic (PK) parameters following intravenous infusion administration was conducted using Phoenix WinNonlin version 6.3 using a nominal infusion duration and scheduled blood sampling times.
as §1

[1] = Cohort 2, 12 mg/m^2 IV, r6-8=Subjects 1-3,r10=Mean,r12=Min,r13=Median,r14=Max,r16=Geometric Mean, geometric mean
[2] = Cohort 2, 12 mg/m^2 IV, r6-8=Subjects 1-3,r10=Mean,r12=Min,r13=Median,r14=Max,r16=Geometric Mean, mean
[3] = Cohort 2, 12 mg/m^2 IV, r6-8=Subjects 1-3,r10=Mean,r12=Min,r13=Median,r14=Max,r16=Geometric Mean, median
[4] = Cohort 3, 24 mg/m^2 IV, r6-8=Subjects 1-3,r10=Mean,r12=Min,r13=Median,r14=Max,r16=Geometric Mean, geometric mean
[5] = Cohort 3, 24 mg/m^2 IV, r6-8=Subjects 1-3,r10=Mean,r12=Min,r13=Median,r14=Max,r16=Geometric Mean, maximum
[6] = Cohort 3, 24 mg/m^2 IV, r6-8=Subjects 1-3,r10=Mean,r12=Min,r13=Median,r14=Max,r16=Geometric Mean, mean
[7] = Cohort 3, 24 mg/m^2 IV, r6-8=Subjects 1-3,r10=Mean,r12=Min,r13=Median,r14=Max,r16=Geometric Mean, median
[8] = Cohort 3, 24 mg/m^2 IV, r6-8=Subjects 1-3,r10=Mean,r12=Min,r13=Median,r14=Max,r16=Geometric Mean, minimum
[9] = Cohort 4, 48 mg/m^2 IV, r6-8=Subjects 1-3,r10=Mean,r12=Min,r13=Median,r14=Max,r16=Geometric Mean, geometric mean
[10] = Cohort 4, 48 mg/m^2 IV, r6-8=Subjects 1-3,r10=Mean,r12=Min,r13=Median,r14=Max,r16=Geometric Mean, maximum
[11] = Cohort 4, 48 mg/m^2 IV, r6-8=Subjects 1-3,r10=Mean,r12=Min,r13=Median,r14=Max,r16=Geometric Mean, mean
[12] = Cohort 4, 48 mg/m^2 IV, r6-8=Subjects 1-3,r10=Mean,r12=Min,r13=Median,r14=Max,r16=Geometric Mean, median
[13] = Cohort 4, 48 mg/m^2 IV, r6-8=Subjects 1-3,r10=Mean,r12=Min,r13=Median,r14=Max,r16=Geometric Mean, minimum
[14] = Cohort 5, 96 mg/m^2, 30-minute IV infusion, noncompartmental, subjects 1-6, Mean, Min, Median, Max, Geometric Mean, minimum

In the case of CN1CCN(c2ccc(Nc3ncc4cc5n(c4n3)C3(CCCCC3)CNC5=O)nc2)CC1 [Compound 1, 2′-((5-(4-methylpiperazin-1-yl)pyridin-2-yl)amino)-7′,8′-dihydro-6′H-spiro[cyclohexane-1,9′-pyrazino[1′,2′:1,5]pyrrolo[2,3-d]pyrimidin]-6′-one], the HL_Lambda_z (Cohort 1, 6 mg/m^2) is reported as 6.358 and 3.5207 and 4.7366, the “highest (peak) concentration” value (Cohort 1, 6 mg/m^2 IV) is reported as 42.7 ng/mL and 42.9 ng/mL and 60.5 ng/mL and the “Clearance (CL)” value (Cohort 1, 6 mg/m^2 IV, mean) is reported as 91.4 L/h/m^2. The “volume of distribution at steady state (Vss) averaging” value (from here on “volume of distribution”) (Cohort 1, 6 mg/m^2 IV, mean) was 358 L/m^2, the HL_Lambda_z (Cohort 2, 12 mg/m^2) was 7.5562 and 8.8853 and the “highest (peak) concentration” value (Cohort 2, 12 mg/m^2 IV) was 87.4 ng/mL and 136 ng/mL. For the same compound, the “Clearance (CL)” value (Cohort 2, 12 mg/m^2 IV, mean) was 83.5 L/h/m^2, the “volume of distribution” value (Cohort 2, 12 mg/m^2 IV, mean) was 461 L/m^2 and the AUCinf [1] was 146 ng·h/mL. The CL [1] was 82.4 L/h/m^2, the Cmax [1] was 119 ng/mL and the MRTinf [1] was 5.51 h. It also gave a Tmax [1] of 23.8 min, a Vss [1] of 454 L/m^2 and a λz [1] of 0.0845 h⁻¹. It also gave a CL [2] of 83.5 L/h/m^2, a Vss [2] of 461 L/m^2 and a λz [2] of 0.0847 h⁻¹. It also gave an AUCinf [3] of 136 ng·h/mL, a CL [3] of 88.4 L/h/m^2 and a Cmax [3] of 136 ng/mL. The MRTinf [3] was 5.98 h, the Vss [3] was 405 L/m^2 and the λz [3] was 0.0844 h⁻¹. The HL_Lambda_z (Cohort 3, 24 mg/m^2) was 13.1458 and 8.6328 and 7.8478, the “Clearance (CL)” value (Cohort 3, 24 mg/m^2 IV, mean) was 90.7 L/h/m^2 and the “volume of distribution” value (Cohort 3, 24 mg/m^2 IV, mean) was 562 L/m^2. For the same compound, the AUClast [4] was 253 ng·h/mL, the Vss [4] was 550 L/m^2 and the λz [4] was 0.0720 h⁻¹. It also gave an AUClast [5] of 337 ng·h/mL, a Vss [5] of 674 L/m^2 and a λz [5] of 0.0883 h⁻¹. For the same compound, the Vss [6] was 562 L/m^2, the λz [6] was 0.0738 h⁻¹ and the AUClast [7] was 259 ng·h/mL. For the same compound, the Vss [7] was 599 L/m^2, the λz [7] was 0.0803 h⁻¹ and the AUClast [8] was 186 ng·h/mL. The Vss [8] was 412 L/m^2, the λz [8] was 0.0527 h⁻¹ and the HL_Lambda_z (Cohort 4, 48 mg/m^2) was 10.9028 and 7.2383 and 8.5525. The “Clearance (CL)” value (Cohort 4, 48 mg/m^2 IV, mean) was 96.5 L/h/m^2, the “volume of distribution” value (Cohort 4, 48 mg/m^2 IV, mean) was 771 L/m^2 and the Tmax (Cohort 4, 48 mg/m^2 IV, r6-8=Subjects 1-3,r10=Mean,r12=Min,r13=Median,r14=Max,r16=Geometric Mean) was 15 min. For the same compound, the AUCinf [9] was 498 ng·h/mL, the AUClast [9] was 452 ng·h/mL and the CL [9] was 96.4 L/h/m^2. It also gave an MRTinf [9] of 7.83 h, a Tmax [9] of 23.8 min and a Vss [9] of 754 L/m^2. The λz [9] was 0.0790 h⁻¹, the AUCinf [10] was 524 ng·h/mL and the AUClast [10] was 480 ng·h/mL. It also gave a CL [10] of 105 L/h/m^2, a Cmax [10] of 228 ng/mL and an MRTinf [10] of 10.7 h. It also gave a Vss [10] of 995 L/m^2, a λz [10] of 0.0958 h⁻¹ and a CL [11] of 96.5 L/h/m^2. For the same compound, the Vss [11] was 771 L/m^2, the λz [11] was 0.0801 h⁻¹ and the AUCinf [12] was 514 ng·h/mL. The AUClast [12] was 441 ng·h/mL, the CL [12] was 93.3 L/h/m^2 and the Cmax [12] was 227 ng/mL. For the same compound, the MRTinf [12] was 7.80 h, the Vss [12] was 715 L/m^2 and the λz [12] was 0.0810 h⁻¹. It also gave an AUCinf [13] of 459 ng·h/mL, an AUClast [13] of 437 ng·h/mL and a CL [13] of 91.7 L/h/m^2. For the same compound, the MRTinf [13] was 5.76 h, the Tmax [13] was 15 min and the Vss [13] was 603 L/m^2. The λz [13] was 0.0636 h⁻¹, the AUClast (Cohort 5, 96 mg/m^2, 30-minute IV infusion, noncompartmental, subjects 1-6, Mean, Min, Median, Max, Geometric Mean, mean) was 1240 ng·h/mL and the AUClast [14] was 1040 ng·h/mL. For the same compound, the Tmax [14] was 15 min, the maximum mean concentration (Cohort 5, 96 mg/m^2 IV, at the end of infusion (EOI)) was 874 ng/mL and the “Clearance (CL)” value (Cohort 5, 96 mg/m^2 IV, mean) was 74 L/h/m^2. For the same compound, the “volume of distribution” value (Cohort 5, 96 mg/m^2 IV, mean) was 429 L/m^2, the HL_Lambda_z (Cohort 5, received 96 mg/m^2) was 8.4971 and 10.9427 and 7.5378 and 10.6557 and 7.1128 and 6.9746 and the “Clearance (CL)” value (Cohort 6, […]^2 IV, mean) was 62.1 L/h/m^2. The “volume of distribution” value (Cohort 6, […]^2 IV, mean) was 547 L/m^2, the AUC(0-inf) (both sexes, human, plasma, iv, 6 mg/m2, Cohort 1, 6 mg/m^2 IV, mean, read-out: AUCinf averaged) was 67.7 ng·h/mL and the Cmax (both sexes, human, plasma, iv, 6 mg/m2, Cohort 1, 6 mg/m^2 IV, mean, read-out: Cmax averaged) was 50.9 ng/mL. For the same compound, the Tmax (both sexes, human, plasma, iv, 6 mg/m2, Cohort 1, 6 mg/m^2 IV, mean, read-out: Tmax) was 19.8 min, the half-life (both sexes, human, plasma, iv, 6 mg/m2, Cohort 1, 6 mg/m^2 IV, mean, read-out: average half-life (converted)) was 292 min and the MRT inf (both sexes, human, plasma, iv, 6 mg/m2, Cohort 1, 6 mg/m^2 IV, r6-8=Subjects 1-3,r10=Mean,r12=Min,r13=Median,r14=Max,r16=Geometric Mean) was 4.18 h. The AUC(0-inf) (both sexes, human, plasma, iv, 6 mg/m2, Cohort 1, 6 mg/m^2 IV, r6-8=Subjects 1-3,r10=Mean,r12=Min,r13=Median,r14=Max,r16=Geometric Mean, read-out: AUCinf) was 67.7 ng·h/mL, the Cmax (both sexes, human, plasma, iv, 6 mg/m2, Cohort 1, 6 mg/m^2 IV, r6-8=Subjects 1-3,r10=Mean,r12=Min,r13=Median,r14=Max,r16=Geometric Mean, read-out: Cmax) was 50.9 ng/mL and the Tmax (both sexes, human, plasma, iv, 6 mg/m2, Cohort 1, 6 mg/m^2 IV, r6-8=Subjects 1-3,r10=Mean,r12=Min,r13=Median,r14=Max,r16=Geometric Mean, read-out: Tmax) was 20 min. For the same compound, the half-life (both sexes, human, plasma, iv, 6 mg/m2, Cohort 1, 6 mg/m^2 IV, r6-8=Subjects 1-3,r10=Mean,r12=Min,r13=Median,r14=Max,r16=Geometric Mean, read-out: t½ (converted)) was 292 min.
